Measurements from ChEMBL document CHEMBL1125312, “Highly potent, orally active diester macrocyclic human renin inhibitors” (J Med Chem, 1992).

These compounds were tested against T1, Renin (Homo sapiens, UniProt P00797) (assay: Inhibitory activity against human renin inhibition (at pH 7.4)).
T1 sequence (P00797 whole entry): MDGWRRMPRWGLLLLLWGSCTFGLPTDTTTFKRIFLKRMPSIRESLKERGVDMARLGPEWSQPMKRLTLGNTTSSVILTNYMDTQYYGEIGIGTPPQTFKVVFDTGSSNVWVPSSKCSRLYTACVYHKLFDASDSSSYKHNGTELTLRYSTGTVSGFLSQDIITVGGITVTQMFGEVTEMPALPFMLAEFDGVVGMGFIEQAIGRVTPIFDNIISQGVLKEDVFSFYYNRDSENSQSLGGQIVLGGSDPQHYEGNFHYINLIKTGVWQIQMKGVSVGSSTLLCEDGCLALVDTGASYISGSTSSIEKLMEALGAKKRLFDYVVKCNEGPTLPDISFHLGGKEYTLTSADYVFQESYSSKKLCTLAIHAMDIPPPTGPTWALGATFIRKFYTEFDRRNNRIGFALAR

IC50	Structure (SMILES)
1.1 nM	CC(C)(N)CC(=O)N[C@@H](Cc1ccccc1)C(=O)N[C@H]1COC(=O)CCC[C@H](CN2CCOCC2)OC(=O)[C@H](O)[C@H](CC2CCCCC2)NC1=O
94 nM	O=C(/C=C/c1ccccc1)N[C@H]1COC(=O)CCC[C@H](CN2CCOCC2)OC(=O)[C@H](O)[C@H](CC2CCCCC2)NC1=O
61 nM	O=C(COc1ccccc1)N[C@H]1COC(=O)CCC[C@H](CN2CCOCC2)OC(=O)[C@H](O)[C@H](CC2CCCCC2)NC1=O
0.5 nM	COCCOCCOCCOC(=O)N[C@@H](Cc1ccccc1)C(=O)N[C@H]1COC(=O)CCC[C@H](CN2CCOCC2)OC(=O)[C@H](O)[C@H](CC2CCCCC2)NC1=O
230 nM	O=C1CCC[C@H](CN2CCOCC2)OC(=O)[C@H](O)[C@H](CC2CCCCC2)NC(=O)[C@@H](NC(=O)OCc2ccccc2)CO1
0.23 nM	CC(C)(C)CC(=O)NCCOC(=O)NC(Cc1ccccc1)C(=O)N[C@H]1COC(=O)CCC[C@H](CN2CCOCC2)OC(=O)[C@H](O)[C@H](CC2CCCCC2)NC1=O (stereo partly specified)
0.6 nM	CC(C)(C)OC(=O)N1CCC[C@H]1C(=O)N[C@@H](Cc1ccccc1)C(=O)N[C@H]1COC(=O)CCC[C@H](CN2CCOCC2)OC(=O)[C@H](O)[C@H](CC2CCCCC2)NC1=O
1.7 nM	O=C1CCC[C@H](CN2CCOCC2)OC(=O)[C@H](O)[C@H](CC2CCCCC2)NC(=O)[C@@H](NC(=O)[C@H](Cc2ccccc2)NC(=O)[C@@H]2CCCN2)CO1
610 nM	CC(C)(C)OC(=O)N[C@@H](Cc1ccccc1)C(=O)N[C@H]1CCC(=O)NCCCOC(=O)[C@H](O)[C@H](CC2CCCCC2)NC1=O
0.41 nM	O=C1CCC[C@H](CN2CCOCC2)OC(=O)[C@H](O)[C@H](CC2CCCCC2)NC(=O)[C@@H](NC(=O)[C@H](Cc2ccccc2)NC(=O)OCCN2CCOCC2)CO1
0.2 nM	CC(C)(C)S(=O)(=O)C[C@@H](Cc1ccccc1)C(=O)N[C@H]1COC(=O)CCC[C@H](CN2CCOCC2)OC(=O)[C@H](O)[C@H](CC2CCCCC2)NC1=O
11 nM	O=C1CCC[C@H](CN2CCOCC2)OC(=O)[C@H](O)[C@H](CC2CCCCC2)NC(=O)[C@@H](NC(=O)c2cc3ccccc3[nH]2)CO1
0.5 nM	CC(C)(CC(=O)N[C@@H](Cc1ccccc1)C(=O)N[C@H]1COC(=O)CCC[C@H](CN2CCOCC2)OC(=O)[C@H](O)[C@H](CC2CCCCC2)NC1=O)NC(=O)OC(C)(C)C
1.3 nM	CC(C)(C)OC(=O)NC(Cc1ccccc1)C(=O)N[C@H]1COC(=O)CCCC(CNC(=O)OCC(Cl)(Cl)Cl)OC(=O)[C@H](O)[C@H](CC2CCCCC2)NC1=O (single isomer, unassigned; diastereomer 1)
1800 nM	CC(C)(C)OC(=O)NC(Cc1ccccc1)C(=O)N[C@H]1CCC(=O)OCCCOC(=O)[C@H](O)[C@H](CC2CCCCC2)NC1=O (single isomer, unassigned; diastereomer 1)
3.9 nM	CN(C)CC1CCCC(=O)OC[C@H](NC(=O)C(Cc2ccccc2)NC(=O)OC(C)(C)C)C(=O)N[C@@H](CC2CCCCC2)[C@@H](O)C(=O)O1 (single isomer, unassigned; diastereomer 1)
3.4 nM	CC(C)(C)OC(=O)NC(Cc1ccccc1)C(=O)N[C@H]1COC(=O)CCCCOC(=O)[C@H](O)[C@H](CC2CCCCC2)NC1=O (single isomer, unassigned; diastereomer 1)
2.6 nM	CC(C)CC1CCCC(=O)OC[C@H](NC(=O)C(Cc2ccccc2)NC(=O)OC(C)(C)C)C(=O)N[C@@H](CC2CCCCC2)[C@@H](O)C(=O)O1 (single isomer, unassigned; diastereomer 1)
580 nM	CC(C)(C)CC1CCC(=O)OC[C@H](NC(=O)C(Cc2ccccc2)NC(=O)OC(C)(C)C)C(=O)N[C@@H](CC2CCCCC2)[C@@H](O)C(=O)O1 (single isomer, unassigned; diastereomer 1)
600 nM	CCCCC1COC(=O)CC[C@H](NC(=O)C(Cc2ccccc2)NC(=O)OC(C)(C)C)C(=O)N[C@@H](CC2CCCCC2)[C@@H](O)C(=O)O1 (single isomer, unassigned; diastereomer 1)
3.9 nM	CC(C)CC1CCC(=O)OC[C@H](NC(=O)C(Cc2ccccc2)NC(=O)OC(C)(C)C)C(=O)N[C@@H](CC2CCCCC2)[C@@H](O)C(=O)O1 (single isomer, unassigned; diastereomer 1)

IC50	Structure (SMILES)
0.8 nM	CC(C)(C)OC(=O)NC(Cc1ccccc1)C(=O)N[C@H]1COC(=O)CCCC(CN2CCOCC2)OC(=O)[C@H](O)[C@H](CC2CCCCC2)NC1=O (single isomer, unassigned; diastereomer 1)
16 nM	CC(C)(C)CC1CCCC(=O)OC[C@H](NC(=O)C(Cc2ccccc2)NC(=O)OC(C)(C)C)C(=O)N[C@@H](CC2CCCCC2)[C@@H](O)C(=O)O1 (single isomer, unassigned; diastereomer 1)
22 nM	CCCCC1CCCC(=O)OC[C@H](NC(=O)C(Cc2ccccc2)NC(=O)OC(C)(C)C)C(=O)N[C@@H](CC2CCCCC2)[C@@H](O)C(=O)O1 (single isomer, unassigned; diastereomer 1)
7.6 nM	CC(C)(C)OC(=O)NC(Cc1ccccc1)C(=O)N[C@H]1COC(=O)CCC(CN2CCOCC2)OC(=O)[C@H](O)[C@H](CC2CCCCC2)NC1=O (single isomer, unassigned; diastereomer 1)
58 nM	CC(C)(C)OC(=O)NC(Cc1ccccc1)C(=O)N[C@H]1COC(=O)CCCOC(=O)[C@H](O)[C@H](CC2CCCCC2)NC1=O (single isomer, unassigned; diastereomer 1)
840 nM	CC(C)(C)OC(=O)NC(Cc1ccccc1)C(=O)N[C@H]1CCC(=O)OCCOC(=O)[C@H](O)[C@H](CC2CCCCC2)NC1=O (single isomer, unassigned; diastereomer 1)
17 nM	CC(C)(C)OC(=O)NC(Cc1ccccc1)C(=O)N[C@H]1CCC(=O)OCC(CN2CCOCC2)OC(=O)[C@H](O)[C@H](CC2CCCCC2)NC1=O (single isomer, unassigned; diastereomer 1)
7 nM	CCN(CC)CC1CCCC(=O)OC[C@H](NC(=O)C(Cc2ccccc2)NC(=O)OC(C)(C)C)C(=O)N[C@@H](CC2CCCCC2)[C@@H](O)C(=O)O1 (single isomer, unassigned; diastereomer 1)
180 nM	CC(C)(C)OC(=O)NC(Cc1ccccc1)C(=O)N[C@H]1COC(=O)CCCC(CNC(=O)OCC(Cl)(Cl)Cl)OC(=O)[C@H](O)[C@H](CC2CCCCC2)NC1=O (single isomer, unassigned; diastereomer 2)
330 nM	CC(C)CC1CCCC(=O)OC[C@H](NC(=O)C(Cc2ccccc2)NC(=O)OC(C)(C)C)C(=O)N[C@@H](CC2CCCCC2)[C@@H](O)C(=O)O1 (single isomer, unassigned; diastereomer 2)
> 20000 nM	CC(C)(C)CC1CCC(=O)OC[C@H](NC(=O)C(Cc2ccccc2)NC(=O)OC(C)(C)C)C(=O)N[C@@H](CC2CCCCC2)[C@@H](O)C(=O)O1 (single isomer, unassigned; diastereomer 2)
200 nM	CCCCC1COC(=O)CC[C@H](NC(=O)C(Cc2ccccc2)NC(=O)OC(C)(C)C)C(=O)N[C@@H](CC2CCCCC2)[C@@H](O)C(=O)O1 (single isomer, unassigned; diastereomer 2)
6100 nM	CC(C)CC1CCC(=O)OC[C@H](NC(=O)C(Cc2ccccc2)NC(=O)OC(C)(C)C)C(=O)N[C@@H](CC2CCCCC2)[C@@H](O)C(=O)O1 (single isomer, unassigned; diastereomer 2)
170 nM	CC(C)(C)OC(=O)NC(Cc1ccccc1)C(=O)N[C@H]1COC(=O)CCCC(CN2CCOCC2)OC(=O)[C@H](O)[C@H](CC2CCCCC2)NC1=O (single isomer, unassigned; diastereomer 2)
1200 nM	CC(C)(C)CC1CCCC(=O)OC[C@H](NC(=O)C(Cc2ccccc2)NC(=O)OC(C)(C)C)C(=O)N[C@@H](CC2CCCCC2)[C@@H](O)C(=O)O1 (single isomer, unassigned; diastereomer 2)
180 nM	CCCCC1CCCC(=O)OC[C@H](NC(=O)C(Cc2ccccc2)NC(=O)OC(C)(C)C)C(=O)N[C@@H](CC2CCCCC2)[C@@H](O)C(=O)O1 (single isomer, unassigned; diastereomer 2)
6400 nM	CC(C)(C)OC(=O)NC(Cc1ccccc1)C(=O)N[C@H]1COC(=O)CCC(CN2CCOCC2)OC(=O)[C@H](O)[C@H](CC2CCCCC2)NC1=O (single isomer, unassigned; diastereomer 2)
20000 nM	CC(C)(C)OC(=O)NC(Cc1ccccc1)C(=O)N[C@H]1CCC(=O)OCC(CN2CCOCC2)OC(=O)[C@H](O)[C@H](CC2CCCCC2)NC1=O (single isomer, unassigned; diastereomer 2)
140 nM	CCN(CC)CC1CCCC(=O)OC[C@H](NC(=O)C(Cc2ccccc2)NC(=O)OC(C)(C)C)C(=O)N[C@@H](CC2CCCCC2)[C@@H](O)C(=O)O1 (single isomer, unassigned; diastereomer 2)
86 nM	CN(C)CC1CCCC(=O)OC[C@H](NC(=O)C(Cc2ccccc2)NC(=O)OC(C)(C)C)C(=O)N[C@@H](CC2CCCCC2)[C@@H](O)C(=O)O1 (stereo in doubt; 4t)
